Experiments:
[1] = tested on: patients with Ankylosing Spondylitis; settings: three patients
[2] = tested on: patients suffering from Cystic Fibrosis; settings: six patients; topical under arm pits, once monthly; 0.01-1 microgram in DMSO
Protocol: (§1) The formulation was applied under arm pits (topically) to patients suffering from Cystic Fibrosis, psoriasis, ulcerative colitis and Ankylosing Spondylitis. Six patients suffering from Cystic fibrosis were administered this formulation once monthly.

[3] = tested on: patients with ulcerative colitis; settings: one patient
patient with psoriasis = experiment: Topical formulation in patients with psoriasis; settings: approximately 30 patients
Protocol: as §1

[4] = tested on: oesophageal adenocarcinoma; settings: rat model; LTA4 hydrolase inhibitor, inhibition of LTB4 synthesis; cited from earlier work

Compound | symptoms of Ankylosing Spondylitis [1] | clinical benefit and symptoms in Cystic Fibrosis [2] | decrease in all ulcerative mediations [3] | reversal of symptomatology in ulcerative colitis [3] | duration of symptom-free state in psoriasis (patient with psoriasis) | healing of psoriatic lesions on skin (patient with psoriasis) | burden of oesophageal adenocarcinoma [4]
CCCCC/C=C\C/C=C\C/C=C\CC#CCCCC(=O)O [5,6-dehydro arachidonic acid] | helped them with the symptoms | significant clinical benefit and reduction of symptoms | 100% | 100% | remained symptom free for years | completely healed their psoriatic lesions | –
CC(C)C[C@H](NC(=O)[C@@H](O)[C@H](N)Cc1ccccc1)C(=O)O [bestatin] | – | – | – | – | – | – | reduced the burden of oesophageal adenocarcinoma

From US20190231730A1, “TREATMENT OF A DISEASE MEDIATED BY ARACHIDONIC ACID OR AN EICOSANOID” (priority 2016, published 2019)
